Test [1] has as its system acetaminophen-induced liver injury. Description: Acetaminophen-induced liver injury in mice treated with GC, serum ALT and AST (Example 1). The class given is in vivo, Male C57B1/6 mice. More on the design: ALT levels: unit not given here. To be noted: for ALT levels: p<0.001; for AST levels: control group A 6634, p<0.04. As for the experimental part: Male C57B1/6 mice (11-12 weeks old) were obtained from Harlan Laboratories (Jerusalem, Israel) and maintained in the Animal Core of the Hadassah-Hebrew University Medical School. β-glucosylceramide (GC) was purchased from Avanti Polar Lipids (Alabaster, Ala., USA). Glycolipids (3.3 mg/ml) were dissolved in a mixture of 30% Cremophor EL (Sigma, Rehovot, Israel) and ethanol (1:1, C:E) in PBS. Acetaminophen Sigma (cat. # A7085), was dissolved in a mixture of 30% Cremophor EL (Sigma, Rehovot, Israel) and ethanol (1:1) in DDW (Di distilled water). […] Serum AST and ALT levels were measured by an automatic analyzer. Beta glycolipides were previously shown by the present inventors as having immunomodulatory effects. […] The inventors therefore next examined whether such effect may also enhance the glutathione system and thereby ameliorate hepatic injury induced by drugs such as acetaminophen. The effect of GC on acetaminophen-induced liver injury was evaluated by examination of liver enzyme (ALT and AST). Three groups of mice, 15 animals per group, were studied. Mice of all groups were fasted for eight hours before oral administration of acetaminophen and for additional four hours after administration. Mice in all groups were administered orally (PO) with 10 mg/330 μl acetaminophen (in C:E gavage administration). In addition, mice were administered with 100 μg β-glucosylceramide (β-GC, in 30 μl of C:E) two hours before administration of acetaminophen (Group B) and every two hours after acetaminophen administration (Group C), Mice in control group A were treated only with oral PBS.

Test [2] deals with hepatic NKT cells. Description: Flow cytometry of hepatic NKT lymphocytes (CD3+NK1.1+) after acetaminophen. Format: in vivo, mice. To be noted: pretreatment before acetaminophen. As for the experimental part:
For intrahepatic lymphocytes, livers were first crushed through a stainless mesh (size 60, Sigma) and cell suspension was placed in a 50-mL tube for 5 min to pellet the cell debris. Ten milliliters of Lymphoprep (Ficoll, Axis-Shield PoC AS, Oslo, Norway) was slowly placed under the same volume of cell suspension in 50-mL tubes. The tubes were then centrifuged at 1800 rpm for 18 min. Cells at the interface were collected and transferred to new tubes, which were then centrifuged at 1800 rpm for 10 min, to obtain a cell pellet depleted of hepatocytes in a final volume of 250 μl. Approximately 1×10^6 cells/mouse liver were recovered.
Flow cytometry was performed following lymphocyte isolation using 1×10^6 lymphocytes in 100 μl PBS. […] Pacigic Blue anti mouse CD4, FITC-anti mouse CD8 subsets were also used ((eBioscience, USA). For intracellular staining we used PE-anti mouse CD25 and PE-Cy7 anti mouse FOXp3 (eBioscience, USA). Cells were incubated for 30 min at 4° C. in the dark, and washed and resuspended in 200 μl PBS. Analytical cell sorting was performed on 1×10^4 cells from each group using a fluorescence-activated cell sorter (FACSTAR plus, Becton Dickinson). Only live cells were counted and unstained cells served as controls for background fluorescence. Gates were set on forward- and side-scatters to exclude dead cells and red blood cells. […]
A general note: Flow cytometry measures light scatter and fluorescence of single cells or particles in a stream.

Test [3] deals with acetaminophen-induced liver injury. Description: Acetaminophen-induced liver injury in mice treated with GC and vitamins, serum ALT and AST (Example 2). Format: in vivo, Male C57B1/6 mice. To be noted: 24 hr after acetaminophen; vitamins by gavage, with or without 100 μg GC two hours before acetaminophen. On the procedure: Male C57B1/6 mice (11-12 weeks old) were obtained from Harlan Laboratories (Jerusalem, Israel) and maintained in the Animal Core of the Hadassah-Hebrew University Medical School. β-glucosylceramide (GC) was purchased from Avanti Polar Lipids (Alabaster, Ala., USA). […] Acetaminophen Sigma (cat. # A7085), was dissolved in a mixture of 30% Cremophor EL (Sigma, Rehovot, Israel) and ethanol (1:1) in DDW (Di distilled water). Mice were tested for serum Alanine transaminase (ALT) and Aspartate aminotransferase (AST) at 24 hours after acetaminophen administration. Serum AST and ALT levels were measured by an automatic analyzer. Mice of all groups (eight per group) were fasted for eight hours before oral administration of acetaminophen and for additional four hours after administration. […] Animals were sacrificed after 24 hours, and liver damage was assessed in all groups by examining serum levels of ALT, AST, GSH and TNF-α.

Regarding β-glucosylceramide [GC], the ALT levels in test [1] (12 hr after acetaminophen 10 mg PO, 100 μg GC every two hours after acetaminophen (Group C), control group A 505) turned out to be 364; in test [1] (12 hr after acetaminophen 10 mg PO, 100 μg GC two hours before acetaminophen (Group B), control group A 505) it was 332; in test [1] (24 hr after acetaminophen, GC every two hours after acetaminophen (Group C), control group A 12150), 5034; in test [1] (24 hr after acetaminophen, GC two hours before acetaminophen (Group B), control group A 12150), 5222. The AST levels in test [1] (24 hr after acetaminophen, GC every two hours after acetaminophen (Group C)) is recorded as 4029; in test [1] (24 hr after acetaminophen, GC two hours before acetaminophen (Group B)) it was 3650. Also, the “change in hepatic NKT cells” value in test [2] is reported as “small increase”.

As to `O=C1O[C@H]([C@@H](O)CO)C(O)=C1O` [vitamin C, L-Ascorbic acid], the “effect on ALT levels (FIG. 4)” value in test [3] was “negligible effect”.

Turning to `Cc1c(C)c2c(c(C)c1O)CC[C@@](C)(CCC[C@H](C)CCC[C@H](C)CCCC(C)C)O2` [vitamin E, α-Tocopherol], the “effect on ALT levels (FIG. 4)” value in test [3] is recorded as “negligible effect”. Also, the “change in hepatic NKT cells” value in test [2] is listed as “became significant”.

These data come from patent publication US20120148547A1, “COMBINATION OF VITAMIN E AND BETA-GLYCOSPHINGOLIPIDS IN COMPOSITIONS AND METHODS FOR PREVENTING AND TREATING HEPATIC DISORDERS” (Hadasit Medical Reasearch Services & Development Ltd., priority 2009, published 2012).
